Experimental data: paper PMC7763917, “A Facile Semisynthesis and Evaluation of Garcinoic Acid and Its Analogs for the Inhibition of Human DNA Polymerase β” (Molecules, 2020)
pIC50: −log10 of the molar value.

Target: T1, human DNA polymerase β (hpol β) (Homo sapiens, UniProt P06746)
Test: not given
Design: method as in PMID 16146411
Conditions: garcinoic acid analog with the dihydropyran ring opened; not in Table 2, no reference printed at the sentence; cited from earlier work

Compound | hpol β inhibition activity (in words)
C/C(=C\CC/C(C)=C/CC[C@@](C)(O)CCc1cc(O)cc(C)c1O)CC/C=C(\C)C(=O)O [chrysochlamic acid] | lack of hpol β inhibition activity

Target: T1, human DNA polymerase β (hpol β)
Test: fluorescence-based polymerase inhibition assay
Type: biochemical
Conditions: 1 nM hpol β, 50 nM DNA, 100 μM dTTP, 25 °C; compounds tested from 1 μM to 120 μM; mean of triplicate; read-out: IC50 in inhibiting hpol β
Experimental: A fluorescence-based assay, as described previously, was used to determine the IC50 values for garcinoic acid and its homologs for human DNA polymerase β. DNA substrates were prepared as we reported previously. Briefly, a reporter strand conjugated with 5-carboxytetramethylrhodamine (TAMRA) and an unlabeled primer were annealed to a Black Hole Quencher (BHQ)-labelled template strand in a solution containing 10 mM Tris (pH 8.0) and 50 mM NaCl. The oligonucleotides were annealed in a 1:1.5:1.5 ratio for reporter, primer and template strand, respectively. The oligonucleotides were mixed and incubated for 3 min at 95 °C before cooling to room temperature.
The polymerase reaction was performed with 1 nM hpol β, 50 nM DNA, 100 μM dTTP and 2 mM MgCl2 in 50 mM Tris (pH 8.0) buffer containing 40 mM NaCl, 2 mM DTT and 0.01% (w/v) Tween 20. The reaction mix containing enzyme and dTTP were incubated for 5 min with the compound or DMSO in a 96-well plate before adding DNA to initiate the reaction. Polymerase reactions were performed at room temperature (25 °C). The plate was read continuously for one hour with a Synergy H4 plate reader (BioTek, λex = 525 nm, λem = 598 nm) (Winooski, VT, USA) after initiation of the reaction. The percent inhibition was calculated by dividing the rate of product formation at each compound concentration by the rate of product formation in DMSO control. The data was fit to a four-parameter logistic model with variable slope in Prism (San Diego, CA, USA) to calculate the IC50 values. The reactions were performed in triplicate and the mean IC50 value is reported with 95% confidence intervals.

Compound | pIC50
COC(=O)/C=C/CC/C(C)=C/CC[C@]1(C)CCc2cc(O)cc(C)c2O1 [Compound 13b, Methyl 9-[(R)-6-hydroxy-2,8-dimethylchroman-2-yl]-6-methylnona-2E,6E-dienoate] | < 3.92
C/C(=C\CC[C@]1(C)CCc2cc(O)cc(C)c2O1)CC/C=C(\C)C(=O)O [Compound 10a, 9-[(R)-6-Hydroxy-2,8-dimethylchroman-2-yl]-2,6-dimethylnona-2E,6E-dienoic acid] | 4.28
C/C(=C\CC[C@]1(C)CCc2cc(O)cc(C)c2O1)CC/C=C/C(=O)O [Compound 10b, 9-[(R)-6-Hydroxy-2,8-dimethylchroman-2-yl]-6-methylnona-2E,6E-dienoic acid] | 4.31
C/C(=C\CC/C(C)=C/CC[C@]1(C)CCc2cc(O)cc(C)c2O1)CC/C=C/C(=O)O [Compound 11, 13-[(R)-6-Hydroxy-2,8-dimethylchroman-2-yl]-6,10-dimethyltrideca-2E,6E,10E-trienoic acid] | 4.64
C/C(=C\CC[C@]1(C)CCc2cc(O)cc(C)c2O1)C(=O)O [Compound 9a, 5-[(R)-6-Hydroxy-2,8-dimethylchroman-2-yl]-2-methylpent-2E-enoic acid] | < 3.92
C/C(=C\CC/C(C)=C/CC[C@]1(C)CCc2cc(O)cc(C)c2O1)CC/C=C(\C)C(=O)O [Compound 1, 13-[(R)-6-Hydroxy-2,8-dimethylchroman-2-yl]-2,6,10-trimethyltrideca-2E,6E,10E-trienoic acid] | 4.96
COc1cc(C)c2c(c1)CC[C@@](C)(CC/C=C(\C)CC/C=C(\C)CC/C=C(\C)C(=O)O)O2 [Compound 16, 13-[(R)-6-methoxy-2,8-dimethylchroman-2-yl]-2,6,10-trimethyltrideca-2E,6E,10E-trienoic Acid] | 4.51
Cc1cc(O)cc2c1O[C@](C)(CC/C=C/C(=O)O)CC2 [Compound 9b, 5-[(R)-6-Hydroxy-2,8-dimethylchroman-2-yl]pent-2E-enoic acid] | < 3.92
COC(=O)/C=C/CC[C@]1(C)CCc2cc(O)cc(C)c2O1 [Compound 12b, Methyl 5-[(R)-6-hydroxy-2,8-dimethylchroman-2-yl]pent-2E-enoate] | < 3.92
COC(=O)/C(C)=C/CC[C@]1(C)CCc2cc(O)cc(C)c2O1 [Compound 12a, Methyl 5-[(R)-6-hydroxy-2,8-dimethylchroman-2-yl]-2-methylpent-2E-enoate] | < 3.92
COC(=O)/C(C)=C/CC/C(C)=C/CC/C(C)=C/CC[C@]1(C)CCc2cc(O)cc(C)c2O1 [Compound 14a, Methyl 13-[(R)-6-hydroxy-2,8-dimethylchroman-2-yl]-2,6,10-trimethyltrideca-2E,6E,10E-trienoate] | < 3.92
COC(=O)/C=C/CC/C(C)=C/CC/C(C)=C/CC[C@]1(C)CCc2cc(O)cc(C)c2O1 [Compound 14b, Methyl 13-[(R)-6-hydroxy-2,8-dimethylchroman-2-yl]-6,10-dimethyltrideca-2E,6E,10E-trienoate] | < 3.92
COC(=O)/C(C)=C/CC/C(C)=C/CC/C(C)=C/CC[C@]1(C)CCc2cc(OC)cc(C)c2O1 [Compound 15, Methyl 13-[(R)-6-methoxy-2,8-dimethylchroman-2-yl]-2,6,10-trimethyltrideca-2E,6E,10E-trienoate] | < 3.92
COC(=O)/C(C)=C/CC/C(C)=C/CC[C@]1(C)CCc2cc(O)cc(C)c2O1 [Compound 13a, Methyl 9-[(R)-6-hydroxy-2,8-dimethylchroman-2-yl]-2,6-dimethylnona-2E,6E-dienoate] | < 3.92
